The experiment deals with T1, mGlyT-1b (Mus musculus, UniProt P28571).
T1 construct: host or cells: Flp-in-CHO
T1 sequence (P28571 1-651 isoform P28571-2): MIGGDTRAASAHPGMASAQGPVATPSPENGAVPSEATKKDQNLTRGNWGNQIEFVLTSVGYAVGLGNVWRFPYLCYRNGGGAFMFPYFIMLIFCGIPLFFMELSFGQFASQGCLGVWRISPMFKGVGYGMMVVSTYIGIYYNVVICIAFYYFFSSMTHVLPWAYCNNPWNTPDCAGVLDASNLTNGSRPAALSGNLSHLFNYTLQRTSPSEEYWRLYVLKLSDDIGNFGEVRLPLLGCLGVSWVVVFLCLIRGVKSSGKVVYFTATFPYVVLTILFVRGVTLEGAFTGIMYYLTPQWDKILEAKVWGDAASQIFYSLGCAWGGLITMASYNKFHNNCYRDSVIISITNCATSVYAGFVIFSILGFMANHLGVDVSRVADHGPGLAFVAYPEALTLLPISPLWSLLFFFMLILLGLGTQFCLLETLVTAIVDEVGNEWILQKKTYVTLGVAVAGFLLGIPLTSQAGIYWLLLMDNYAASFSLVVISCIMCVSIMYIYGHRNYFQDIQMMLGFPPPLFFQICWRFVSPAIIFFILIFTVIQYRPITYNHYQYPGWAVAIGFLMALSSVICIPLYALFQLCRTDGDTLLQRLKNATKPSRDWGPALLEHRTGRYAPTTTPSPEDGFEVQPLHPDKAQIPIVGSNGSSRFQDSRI
The experiment is described as follows: Glycine uptake inhibition assay (mGlyT-1b). The class given is cell-based. Conditions: inhibition of [3H]-glycine uptake in Flp-in-CHO cells transfected with mGlyT-1b cDNA; 20 min preincubation at 22° C.; read-out: IC50 (μM) at GlyT-1. Here is the method: DMEM complete medium: Nutrient mixture F-12 (Gibco Life-technologies), fetal bovine serum (FBS) 5%, (Gibco life technologies), Penicillin/Streptomycin1% (Gibco life technologies), Hygromycin 0.6 mg/ml (Gibco life technologies), Glutamine 1 mM Gibco life technologies)
Uptake buffer (UB): 150 mM NaCl, 10 mM Hepes-Tris, pH 7.4, 1 mM CaCl2, 2.5 mM KCl, 2.5 mM MgSO4, 10 mM (+) D-glucose.
Flp-in™-CHO (Invitrogen Cat n^o R758-07) cells stably transfected with mGlyT1b cDNA.
Glycine Uptake Inhibition Assay (mGlyT-1b)
On day 1 mammalian cells, (Flp-in™-CHO), transfected with mGlyT-1b cDNA, were plated at the density of 40,000 cells/well in complete F-12 medium, without hygromycin in 96-well culture plates. On day 2, the medium was aspirated, and the cells were washed twice with uptake buffer (UB). The cells were then incubated for 20 min at 22° C. with either (i) no potential competitor, (ii) 10 mM non-radioactive glycine, (iii) a concentration of a potential inhibitor. A range of concentrations of the potential inhibitor was used to generate data for calculating the concentration of inhibitor resulting in 50% of the effect (e.g. IC50, the concentration of the competitor inhibiting glycine uptake of 50%). A solution was then immediately added containing [^3H]-glycine 60 nM (11-16 Ci/mmol) and 25 μM non-radioactive glycine. The plates were incubated with gentle shaking, and the reaction was stopped by aspiration of the mixture and washing (three times) with ice-cold UB. The cells were lysed with scintillation liquid, shaken 3 hours, and the radioactivity in the cells was counted using a scintillation counter.

The structures appear in SMILES notation.

As a reminder, the IC50 is the concentration at which inhibition is half-maximal.

Regarding `C[C@H](Oc1ccc(S(C)(=O)=O)cc1C(=O)N1Cc2cnc(N3CCOCC3)cc2C1)C(F)(F)F` [Example 356, [5-Methanesulfonyl-2-((S)-2,2,2-trifluoro-1-methyl-ethoxy)-phenyl]-(6-morpholin-4-yl-1,3-dihydro-pyrrolo[3,4-c]pyridin-2-yl)-methanone], the IC50 is 0.013 µM.
The figure for `CS(=O)(=O)c1ccc(OCC(F)(F)C(F)(F)F)c(C(=O)N2Cc3cc(F)c(OC4CCOCC4)cc3C2)c1` [Example 379, [5-Fluoro-6-(tetrahydro-pyran-4-yloxy)-1,3-dihydro-isoindol-2-yl]-[5-methanesulfonyl-2-(2,2,3,3,3-pentafluoro-propoxy)-phenyl]-methanone] is 0.007 µM; for `C[C@H](Oc1ccc(S(C)(=O)=O)cc1C(=O)N1CCc2c(Br)cccc21)C(F)(F)F` [Example 211, (4-Bromo-2,3-dihydro-indol-1-yl)-[5-methanesulfonyl-2-((S)-2,2,2-trifluoro-1-methyl-ethoxy)-phenyl]-methanone] it is 0.034 µM.
The figure for `COc1cc2c(cc1C(F)(F)F)CN(C(=O)c1cc(S(C)(=O)=O)ccc1O[C@@H](C)C(F)(F)F)C2` [Example 100] is 0.045 µM; for `C[C@H](Oc1ccc(S(C)(=O)=O)cc1C(=O)N1Cc2ccc(-c3ccccc3Cl)cc2C1)C(F)(F)F` [Example 324, [5-(2-Chloro-phenyl)-1,3-dihydro-isoindol-2-yl]-[5-methanesulfonyl-2-(2,2,2-trifluoro-1-methyl-ethoxy)-phenyl]-methanone] it is 0.045 µM; for `C[C@H](Oc1ccc(S(C)(=O)=O)cc1C(=O)N1Cc2ccc(C3(F)COC3)cc2C1)C(F)(F)F` [Example 368, [5-(3-Fluoro-oxetan-3-yl)-1,3-dihydro-isoindol-2-yl]-[5-methanesulfonyl-2-((S)-2,2,2-trifluoro-1-methyl-ethoxy)-phenyl]-methanone] it is 0.005 µM.
Then `C[C@@H](Oc1ccc(S(C)(=O)=O)cc1C(=O)N1Cc2cc(C(F)(F)F)cnc2C1)C(F)(F)F` [Example 139, [5-Methanesulfonyl-2-((R)-2,2,2-trifluoro-1-methyl-ethoxy)-phenyl]-(3-trifluoro-methyl-5,7-dihydro-pyrrolo[3,4-b]pyridin-6-yl)-methanone], with 0.014 µM.
With `CCSc1cc2c(cc1Cl)CN(C(=O)c1cc(S(C)(=O)=O)ccc1O[C@H](C)C(F)(F)F)C2` [Example 59, (5-Chloro-6-ethylsulfanyl-1,3-dihydro-isoindol-2-yl)-[5-methanesulfonyl-2-((R)-2,2,2-trifluoro-1-methyl-ethoxy)-phenyl]-methanone], the IC50 stood at 0.036 µM.
With `COC(=O)c1cccc2c1CCN2C(=O)c1cc(S(C)(=O)=O)ccc1O[C@@H](C)C(F)(F)F` [Example 205, 1-[5-Methanesulfonyl-2-((S)-2,2,2-trifluoro-1-methyl-ethoxy)-benzoyl]-2,3-dihydro-1H-indole-4-carboxylic acid methyl ester], the IC50 was 0.046 µM.
The figure for `C[C@H](Oc1ccc(S(C)(=O)=O)cc1C(=O)N1Cc2ccc(-c3ccncc3)cc2C1)C(F)(F)F` [Example 315, [5-Methanesulfonyl-2-((S)-2,2,2-trifluoro-1-methyl-ethoxy)-phenyl]-(5-pyridin-4-yl-1,3-dihydro-isoindol-2-yl)-methanone] is 0.017 µM.
The figure for `C[C@H](Oc1ccc(S(C)(=O)=O)cc1C(=O)N1Cc2ccc(OC3CCOCC3)cc2C1)C(F)(F)F` [Example 367, [5-Methanesulfonyl-2-((S)-2,2,2-trifluoro-1-methyl-ethoxy)-phenyl]-[5-(tetrahydro-pyran-4-yloxy)-1,3-dihydro-isoindol-2-yl]-methanone] is 0.0015 µM.
Then `C[C@H](Oc1ccc(S(C)(=O)=O)cc1C(=O)N1Cc2ccc(C3CCCOC3)cc2C1)C(F)(F)F` (mixture of isomers) [Example 312, [5-Methanesulfonyl-2-((S)-2,2,2-trifluoro-1-methyl-ethoxy)-phenyl]-[5-(tetrahydro-pyran-3-yl)-1,3-dihydro-isoindol-2-yl]-methanone], with 0.032 µM; and `CC(C)COc1ccc(S(C)(=O)=O)cc1C(=O)N1Cc2cc(Cl)c(N3CCOCC3)cc2C1` [Example 248, (5-Chloro-6-morpho-lin-4-yl-1,3-dihydro-isoindol-2-yl)-(2-isobutoxy-5-methanesulfonyl-phenyl)-methanone], with 0.026 µM; and `C[C@H](Oc1ccc(S(C)(=O)=O)cc1C(=O)N1Cc2ccc(-c3ccccc3)cc2C1)C(F)(F)F` [Example 323, [5-Methanesulfonyl-2-((S)-2,2,2-trifluoro-1-methyl-ethoxy)-phenyl]-(5-phenyl-1,3-dihydro-isoindol-2-yl)-methanone], with 0.013 µM.
Turning to `COc1cc2c(cc1Cl)CN(C(=O)c1cc(S(C)(=O)=O)ccc1O[C@@H](C)C(F)(F)F)C2` [Example 27, (5-Chloro-6-methoxy-1,3-dihydro-isoindol-2-yl)-[5-methanesulfonyl-2-((S)-2,2,2-trifluoro-1-methyl-ethoxy)-phenyl]-methanone], the IC50 turned out to be 0.022 µM.
Take `C[C@H](Oc1ccc(S(C)(=O)=O)cc1C(=O)N1Cc2cc(Cl)c(C3CCOCC3)cc2C1)C(F)(F)F` [Example 305, [5-Chloro-6-(tetra-hydro-pyran-4-yl)-1,3-dihydro-isoindol-2-yl]-[5-methane-sulfonyl-2-((S)-2,2,2-trifluoro-1-methyl-ethoxy)-phenyl]-methanone]: the IC50 is 0.037 µM.
For the compound `C[C@H](Oc1ccc(S(C)(=O)=O)cc1C(=O)N1Cc2cnc(-c3ccc(F)cc3)cc2C1)C(F)(F)F` [Example 321, [6-(4-Fluoro-phenyl)-1,3-dihydro-pyrrolo[3,4-c]pyridin-2-yl]-[5-methanesulfonyl-2-((S)-2,2,2-trifluoro-1-methyl-ethoxy)-phenyl]-methanone], the IC50 was 0.034 µM.
As for `C[C@H](Oc1ccc(S(C)(=O)=O)cc1C(=O)N1Cc2ccc(OCC(F)(F)F)cc2C1)C(F)(F)F` [Example 357, [5-Methanesulfonyl-2-((S)-2,2,2-trifluoro-1-methyl-ethoxy)-phenyl]-[5-(2,2,2-trifluoro-ethoxy)-1,3-dihydro-isoindol-2-yl]-methanone], the IC50 was 0.03 µM.
Then `CS(=O)(=O)c1ccc(-c2ccccc2)c(C(=O)N2Cc3cc(Cl)c(N4CCOCC4)cc3C2)c1` [Example 252, (5-Chloro-6-morpho-lin-4-yl-1,3-dihydro-isoindol-2-yl)-(4-methanesulfonyl-biphenyl-2-yl)-methanone], with 0.033 µM.
Then `CS(=O)(=O)c1ccc(-c2ccc(F)cc2)c(C(=O)N2Cc3cc(Cl)c(N4CCOCC4)cc3C2)c1` [Example 256, (5-Chloro-6-morpho-lin-4-yl-1,3-dihydro-isoindol-2-yl)-(4′-fluoro-4-methane-sulfonyl-biphenyl-2-yl)-methanone], with 0.032 µM.
Then `CCSc1cc2c(cc1C(F)(F)F)CN(C(=O)c1cc(S(C)(=O)=O)ccc1O[C@@H](C)C(F)(F)F)C2` [Example 217, (5-Ethylsulfanyl-6-trifluoromethyl-1,3-dihydro-isoindol-2-yl)-[5-methanesulfonyl-2-((S)-2,2,2-trifluoro-1-methyl-ethoxy)-phenyl]-methanone], with 0.037 µM; and `Cc1cc2c(cc1Cl)CN(C(=O)c1cc(S(C)(=O)=O)ccc1OCC(C)C)C2` [Example 56, (5-Chloro-6-methyl-1,3-dihydro-isoindol-2-yl)-(2-isobutoxy-5-methanesulfonyl-phenyl)-methanone], with 0.016 µM; and `CC(C)COc1ccc(S(C)(=O)=O)cc1C(=O)N1Cc2ccc(C3CCOCC3)cc2C1` [Example 270, (2-Isobutoxy-5-methanesulfonyl-phenyl)-[5-(tetrahydro-pyran-4-yl)-1,3-dihydro-isoindol-2-yl]-methanone], with 0.035 µM.

The values above are taken from patent publication US8188139B2, “Heterocyclic-substituted phenyl methanones” (Hoffman-La Roche Inc., priority 2005, dated 2012).
